The substances below were run on human p21 mRNA (assay: In vitro cleavage assay of human p21 mRNA). Conditions: in vitro cleavage of p21 mRNA (SEQ ID NO: 1); RNA substrate 500 nM, 37° C. 60 min, agarose gel.
Format: biochemical
Excerpt: Total RNA was isolates from senescent IMR-90 cells using Nucleospin® RNA kit (Macherey-Nagel™). cDNA was synthesized with gene-specific reverse primers using M-MLV Reverse Transcriptase (Promega), according to the manufacturer's protocol. To generate template for in vitro transcription (IVT) reaction, the cDNA was PCR amplified using KAPA Taq EXtra HotStart® ReadyMix™ PCR Kit (R&D). PCR product was run on 1.5% agarose TAE gel, the correct band size was cut and DNA was cleaned using Wizard® SV Gel and PCR Clean-Up System kit (Promega). IVT was performed using HiScribe™ T7 High Yield RNA Synthesis Kit (NEB). Samples were then treated with DNase I (New England Biolabs) and incubated for 15 minutes at 37° C. IVT product was run on 1.5% agarose TBE gel, the correct band size was cut and RNA was cleaned using QIAquick® Gel Extraction Kit (Qiagen). See primer sequences in Table 1, below.
RNA substrate was diluted with Molecular Biology Grade Water (Biological Industries) and used in in vitro cleavage assay. A 20 μl reaction system comprising RNA substrate (final concentration 500 nM), 2 μl 10× reaction buffer (50 mM Tris-HCl pH 7.4, 100 mM NaCl, 10 mM MgCl2) and 1 μl DNAzyme (10 μM) (as depicted in Table 2, below) was mixed. Reactions were incubated at 37° C. for 60 min. 2×RNA L.D. (Thermo Fisher) was added to each sample. Samples were heated at 70° C. for 30 sec, centrifuged and loaded onto 1.5% agarose TBE gels. Quantification was performed using Image Lab software (Bio Rad).

| Substance | Validated cleavage |
| --- | --- |
| DNAzyme 354: SEQ ID NO: 23: CGGTTCTGAggctagctacaacgaATGGCGCCT (DNA CGGTTCTGAGGCTAGCTACAACGAATGGCGCCT; DNA, backbone and methylation of C not given here) | validated for mediating cleavage of p21 mRNA |
| DNAzyme 495: SEQ ID NO: 29: GAAGTTCCAggctagctacaacgaCGCTCACGG (DNA GAAGTTCCAGGCTAGCTACAACGACGCTCACGG; DNA, backbone and methylation of C not given here) | validated for mediating cleavage of p21 mRNA |
| DNAzyme 541: SEQ ID NO: 30: GCUCCCAGGggctagctacaacgaGAAGUCACC (DNA GCUCCCAGGGGCTAGCTACAACGAGAAGUCACC; DNA, backbone, methylation of C and T or U not given here) | validated for mediating cleavage of p21 mRNA |
| DNAzyme 846: SEQ ID NO: 33: GTGGGCGGAggctagctacaacgaTAGGGCTTC (DNA GTGGGCGGAGGCTAGCTACAACGATAGGGCTTC; DNA, backbone and methylation of C not given here) | validated for mediating cleavage of p21 mRNA |
| DNAzyme 857: SEQ ID NO: 34: GCAGGCTTtccgagccggacgaTGTGGGCGG (GCAGGCTTTCCGAGCCGGACGATGTGGGCGG; DNA, backbone and methylation of C not given here) | validated for mediating cleavage of p21 mRNA |
| DNAzyme 974: SEQ ID NO: 35: GGGTATGTAggctagctacaacgaATGAGGAGG (GGGTATGTAGGCTAGCTACAACGAATGAGGAGG; DNA, backbone and methylation of C not given here) | validated for mediating cleavage of p21 mRNA |
| DNAzyme 1003: SEQ ID NO: 37: GCCAGAGGtccgagccggacgaGGGGGGCAG (DNA GCCAGAGGTCCGAGCCGGACGAGGGGGGCAG; DNA, backbone and methylation of C not given here) | validated for mediating cleavage of p21 mRNA |
| DNAzyme 1013: SEQ ID NO: 38: TAATTCTAAggctagctacaacgaGCCAGAGGC (DNA TAATTCTAAGGCTAGCTACAACGAGCCAGAGGC; DNA, backbone and methylation of C not given here) | validated for mediating cleavage of p21 mRNA |
| DNAzyme 1116: SEQ ID NO: 41: AAAGGAGAAggctagctacaacgaACGGGAUGA (DNA AAAGGAGAAGGCTAGCTACAACGAACGGGAUGA; DNA, backbone, methylation of C and T or U not given here) | validated for mediating cleavage of p21 mRNA |
| DNAzyme 1252: SEQ ID NO: 42: GGGGGTGAAggctagctacaacgaTTCATAACC (DNA GGGGGTGAAGGCTAGCTACAACGATTCATAACC; DNA, backbone and methylation of C not given here) | validated for mediating cleavage of p21 mRNA |
| DNAzyme 1455: SEQ ID NO: 45: AGGGGGGTAggctagctacaacgaCAAGAGCCA (DNA AGGGGGGTAGGCTAGCTACAACGACAAGAGCCA; DNA, backbone and methylation of C not given here) | validated for mediating cleavage of p21 mRNA |
| DNAzyme 1467: SEQ ID NO: 46: TTCACAAGAggctagctacaacgaAGAGGGGGG (DNA TTCACAAGAGGCTAGCTACAACGAAGAGGGGGG; DNA, backbone and methylation of C not given here) | validated for mediating cleavage of p21 mRNA |
| DNAzyme 1504: SEQ ID NO: 47: GGGGTGGTtccgagccggacgaGCTCCAGGA (DNA GGGGTGGTTCCGAGCCGGACGAGCTCCAGGA; DNA, backbone and methylation of C not given here) | validated for mediating cleavage of p21 mRNA |
| DNAzyme 1524: SEQ ID NO: 48: GAGGGGCCAggctagctacaacgaGAGGGCAGG (DNA GAGGGGCCAGGCTAGCTACAACGAGAGGGCAGG; DNA, backbone and methylation of C not given here) | validated for mediating cleavage of p21 mRNA |
| DNAzyme 1641: SEQ ID NO: 53: AGAGGGGAAggctagctacaacgaTGCAGAGCC (DNA AGAGGGGAAGGCTAGCTACAACGATGCAGAGCC; DNA, backbone and methylation of C not given here) | validated for mediating cleavage of p21 mRNA |
| DNAzyme 1683: SEQ ID NO: 55: AGAGGGTAtccgagccggacgaGAAGGGAAA (DNA AGAGGGTATCCGAGCCGGACGAGAAGGGAAA; DNA, backbone and methylation of C not given here) | validated for mediating cleavage of p21 mRNA |
| DNAzyme 1684: SEQ ID NO: 56: GAGAGGGTAggctagctacaacgaTGAAGGGAA (DNA GAGAGGGTAGGCTAGCTACAACGATGAAGGGAA; DNA, backbone and methylation of C not given here) | validated for mediating cleavage of p21 mRNA |
| DNAzyme 1719: SEQ ID NO: 57: GGGGTGGGAggctagctacaacgaAGGCACCTC (DNA GGGGTGGGAGGCTAGCTACAACGAAGGCACCTC; DNA, backbone and methylation of C not given here) | validated for mediating cleavage of p21 mRNA |
| DNAzyme 1736: SEQ ID NO: 58: CCATTGAGtccgagccggacgaGGGGGTGGG (DNA CCATTGAGTCCGAGCCGGACGAGGGGGTGGG; DNA, backbone and methylation of C not given here) | validated for mediating cleavage of p21 mRNA |

These substances were tested on senescent human IMR-90 fibroblast cells (assay: not given). Conditions: not given.
Format: cell-based
Method: Human IMR-90, BJ, WI-38 fibroblasts and REC epithelial cells were obtained from ATCC and grown at 5% oxygen. IMR-90 and REC cells were maintained in DMEM medium comprising 100 units per ml of penicillin, […] of streptomycin and 10% fetal bovine serum. BJ and WI-38 cells were maintained in EMEM medium comprising 100 units per ml of penicillin, […] of streptomycin, 10% fetal bovine serum, 1% Pyruvate, 1% L-Glutamine, mLFs were isolated according to standard procedures [Seluanov, A., et al. J Vis Exp (2010) (44):2033] and grown at 5% oxygen. Cells were maintained in EMEM medium comprising 100 units per ml of penicillin, […] of streptomycin and 15% fetal bovine serum.
DNA damage induced senescence (DIS) was induced by etoposide treatment (E1383, Sigma) at a concentration of […] for IMR-90, BJ, and WI-38, 16 μM for mLF and 12.5 μM for REC for a duration of 48 hours. Cells acquired the senescence phenotype 7 days post treatment (determined by SA-beta-gal staining).
Oncogene Induced Senescence (OIS) was induced by means of retroviral infection with H-RasG12 (pLNCX2) at 5% oxygen. Retroviruses were packaged, and infections were performed as described below.
Replicative Induced Senescence (RIS) was induced by long-term passaging of the cells in tissue culture. Cells acquired the senescence phenotype after 40 population doublings.
Primary target cells (IMR-90, BJ, […]) were plated in 24-well plates at 100,000 cells per well. Cells were transfected with different concentrations of DNAzymes (as depicted in Table 2, below) using Lipofectamine™ 2000 (Invitrogen) according to manufacturer instructions. The percentage of survival was determined based on quantification of remaining adherent cells using PrestoBlue® reagent (A13262, Life Technologies Ltd.) relative to Lipofectamine™ only control and compared to Scramble DNAzyme (Dz_Scramble) [Scramble Arm (Scr A) sequence: ATCTTCCTFggctagctacaacgaCGCCTCTCC, SEQ ID NO: 5, or Scramble catalytic core (Scr B) sequence: AGGAGAACAacagtaactggcgacGGGATGAGG, SEQ ID NO: 86] treated cells, 3-6 days following transfection.

| Substance | Validated cytotoxicity |
| --- | --- |
| 1872 (DNA TAACCCCATCCGAGCCGGACGACAAGGGGGC; chemistry not given here) [compound 1872] | + |
| 1873 (DNA ATAACCCCAGGCTAGCTACAACGATCAAGGGGG; chemistry not given here) [compound 1873] | + |
| 1938 (DNA TTTGAGGGGGGCTAGCTACAACGACAGTGTCTC; chemistry not given here) [compound 1938] | + |
| 1947 (DNA GCTGGACGAGGCTAGCTACAACGATTGAGGGGC; chemistry not given here) [compound 1947] | + |
| 1967 (DNA TGGGGTGGAGGCTAGCTACAACGAGAGGAAGGT; chemistry not given here) [compound 1967] | + |
| 1976 (DNA GGGGAGGGAGGCTAGCTACAACGAGGGGTGGAT; chemistry not given here) [compound 1976] | + |
| 1986 (DNA GCAATGAATCCGAGCCGGACGAGGGGAGGGA; chemistry not given here) [compound 1986] | + |
| 1991 (DNA AAAGTGCAAGGCTAGCTACAACGAGAACTGGGG; chemistry not given here) [compound 1991] | + |
| 2200 (DNA AGGCCAGTAGGCTAGCTACAACGAGTTACAGGA; chemistry not given here) [compound 2200] | + |
| 2215 (DNA GAGAGAAAAGGCTAGCTACAACGAAGTCCAGGC; chemistry not given here) [compound 2215] | + |
| 2235 (DNA ACCAGGACAGGCTAGCTACAACGAATGGGGAGC; chemistry not given here) [compound 2235] | + |
| 2266 (DNA AGAGGTTTAGGCTAGCTACAACGAAGTCTAGGT; chemistry not given here) [compound 2266] | + |
